Source: patent US11752188B2, “Compositions and methods for nutritional supplements” (DailyColors Health Inc., priority 2020, dated 2023)
Where two headings read alike, the source gives them in different places. One block for each compound: values may come before it.

How the values were obtained:
recombinant human CD38 = molecular target: T1, recombinant human CD38 (Homo sapiens, UniProt P28907); assay: CD38 hydrolase in vitro enzymatic assay (ε-NAD+ substrate); format: biochemical
T1 construct: purchased 71277
T1 sequence (P28907 1-300): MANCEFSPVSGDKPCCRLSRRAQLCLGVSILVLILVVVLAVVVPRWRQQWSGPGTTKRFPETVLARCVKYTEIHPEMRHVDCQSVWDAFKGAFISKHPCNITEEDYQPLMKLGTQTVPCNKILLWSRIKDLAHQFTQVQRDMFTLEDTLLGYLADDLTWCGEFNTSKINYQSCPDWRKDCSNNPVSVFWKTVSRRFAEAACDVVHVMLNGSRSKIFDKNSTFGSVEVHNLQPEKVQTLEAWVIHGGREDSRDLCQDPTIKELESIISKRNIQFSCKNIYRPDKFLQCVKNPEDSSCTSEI
Excerpt: Here, DC-5=Yellow Blend, DC-9=Purple Blend, DC-21-Green Blend, DC-13=Red Blend DCH-TIV 1.0 (Adult Centrum Multivitamins). The red blend included Apple Extract, Pomegranate Extract, Tomato Powder, Beet; the green blend included Olive Extract, Rosemary Extract, Green Coffee Bean Extract, Kale; the orange/yellow blend included Onion Extract, Ginger Extract, Grapefruit Extract, Carrot; and the purple/blue blend included Grape, Blueberry Extract, Currant, and Elderberry as listed above.
Assay Conditions: 10 μl of the sample or reference inhibitor was added to 20 μl of enzyme solution and pre-incubated for 30 minutes. The enzymatic reactions were started by the addition of 20 μl of the substrate ε-NAD+, for a total reaction volume of 50 μl. Reaction time was 10 minutes, and then fluorescence intensity at an excitation of 300 nm and an emission of 410 nm was read using a Tecan Infinite M1000 microplate reader.
(§1) Data Analysis: Enzyme activity assays were performed in duplicates at each concentration. The fluorescence intensity data were analyzed and compared. In the absence of the compound, the intensity in each data set was defined as 100% (Ce) activity. In the absence of enzyme, the intensity in each data set was defined as 0% (C0) activity. […] Compound fluorescence was removed by subtracting fluorescence at reaction time=0.

[1] = molecular target: recombinant human Cathepsin S (Homo sapiens, UniProt P25774); assay: Cathepsin S in vitro enzymatic assay (fluorogenic substrate); format: biochemical
Chain of recombinant human Cathepsin S (P25774 115-331): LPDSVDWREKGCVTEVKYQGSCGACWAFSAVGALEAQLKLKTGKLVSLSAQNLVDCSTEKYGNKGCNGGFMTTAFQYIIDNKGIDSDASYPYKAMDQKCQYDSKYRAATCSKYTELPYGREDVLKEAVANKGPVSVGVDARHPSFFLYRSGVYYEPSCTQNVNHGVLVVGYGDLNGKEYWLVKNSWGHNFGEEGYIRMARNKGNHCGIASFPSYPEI
Procedure: Assay Conditions: Cathepsin S was activated by diluting the concentrated storage stock into the acidic assay buffer for 30 minutes at room temperature. Then, 5 μl of the sample or reference inhibitor was added to 20 μl of enzyme solution and pre-incubated for 30 minutes. The enzymatic reactions were started by the addition of 25 μl of the fluorogenic substrate, for a total reaction volume of 50 μl. Reaction time was 60 minutes, and then fluorescence intensity at an excitation of 360 nm and an emission of 460 nm was read using a Tecan Infinite M1000 microplate reader.
as §1

Net Signal (Fluorescence counts) Repeat 1 (recombinant human CD38; 1 μM, Table 61): 3461 Fluorescence counts
Net Signal (Fluorescence counts) Repeat 2 (recombinant human CD38; 1 μM, Table 61): 3761 Fluorescence counts
inhibition at 1 µM (recombinant human CD38; 1 μM, Table 61): 14%
activity at 1 µM (recombinant human CD38; 1 μM, Table 61, read-out: Activity (%) Repeat 1): 82%
activity at 1 µM (recombinant human CD38; 1 μM, Table 61, read-out: Activity (%) Repeat 2): 89%
Net Signal (Fluorescence counts) Repeat 1 (recombinant human CD38; 1 μM, Table 62): 8650 Fluorescence counts
Net Signal (Fluorescence counts) Repeat 2 (recombinant human CD38; 1 μM, Table 62): 8614 Fluorescence counts
inhibition at 1 µM (recombinant human CD38; 1 μM, Table 62): 6%
activity at 1 µM (recombinant human CD38; 1 μM, Table 62, read-out: Activity (%) Repeat 1): 94%
activity at 1 µM (recombinant human CD38; 1 μM, Table 62, read-out: Activity (%) Repeat 2): 94%
Net Signal (Fluorescence counts) Repeat 1 (recombinant human CD38; 1 μM, Table 63): 11531 Fluorescence counts
Net Signal (Fluorescence counts) Repeat 2 (recombinant human CD38; 1 μM, Table 63): 11647 Fluorescence counts
inhibition at 1 µM (recombinant human CD38; 1 μM, Table 63): 14%
activity at 1 µM (recombinant human CD38; 1 μM, Table 63, read-out: Activity (%) Repeat 1): 86%
activity at 1 µM (recombinant human CD38; 1 μM, Table 63, read-out: Activity (%) Repeat 2): 86%
Net Signal (Fluorescence counts) Repeat 1 (recombinant human CD38; 1 μM, TABLE 64): 4138 counts
Net Signal (Fluorescence counts) Repeat 2 (recombinant human CD38; 1 μM, TABLE 64): 3883 counts
inhibition at 1 µM (recombinant human CD38; 1 μM, TABLE 64): 8%
activity at 1 µM (recombinant human CD38; 1 μM, TABLE 64, read-out: Activity (%) Repeat 1): 95%
activity at 1 µM (recombinant human CD38; 1 μM, TABLE 64, read-out: Activity (%) Repeat 2): 89%
Net Signal (Fluorescence counts) Repeat 1 (recombinant human CD38; 10 μM, Table 61): 647 Fluorescence counts
Net Signal (Fluorescence counts) Repeat 2 (recombinant human CD38; 10 μM, Table 61): 618 Fluorescence counts
inhibition at 10 µM (recombinant human CD38; 10 μM, Table 61): 85%
activity at 10 µM (recombinant human CD38; 10 μM, Table 61, read-out: Activity (%) Repeat 1): 15%
activity at 10 µM (recombinant human CD38; 10 μM, Table 61, read-out: Activity (%) Repeat 2): 14%
Net Signal (Fluorescence counts) Repeat 1 (recombinant human CD38; 10 μM, Table 62): 4670 Fluorescence counts
Net Signal (Fluorescence counts) Repeat 2 (recombinant human CD38; 10 μM, Table 62): 5416 Fluorescence counts
inhibition at 10 µM (recombinant human CD38; 10 μM, Table 62): 45%
activity at 10 µM (recombinant human CD38; 10 μM, Table 62, read-out: Activity (%) Repeat 1): 51%
activity at 10 µM (recombinant human CD38; 10 μM, Table 62, read-out: Activity (%) Repeat 2): 59%
Net Signal (Fluorescence counts) Repeat 1 (recombinant human CD38; 10 μM, Table 63): 7118 Fluorescence counts
Net Signal (Fluorescence counts) Repeat 2 (recombinant human CD38; 10 μM, Table 63): 7228 Fluorescence counts
inhibition at 10 µM (recombinant human CD38; 10 μM, Table 63): 47%
activity at 10 µM (recombinant human CD38; 10 μM, Table 63, read-out: Activity (%) Repeat 1): 53%
activity at 10 µM (recombinant human CD38; 10 μM, Table 63, read-out: Activity (%) Repeat 2): 54%
Net Signal (Fluorescence counts) Repeat 1 (recombinant human CD38; 10 μM, TABLE 64): 3091 counts
Net Signal (Fluorescence counts) Repeat 2 (recombinant human CD38; 10 μM, TABLE 64): 3057 counts
inhibition at 10 µM (recombinant human CD38; 10 μM, TABLE 64): 30%
activity at 10 µM (recombinant human CD38; 10 μM, TABLE 64, read-out: Activity (%) Repeat 1): 70%
activity at 10 µM (recombinant human CD38; 10 μM, TABLE 64, read-out: Activity (%) Repeat 2): 70%
Net Signal (Fluorescence counts) Repeat 1 (recombinant human CD38; 100 μM, Table 61): 185 Fluorescence counts
Net Signal (Fluorescence counts) Repeat 2 (recombinant human CD38; 100 μM, Table 61): 135 Fluorescence counts
inhibition at 100 µM (recombinant human CD38; 100 μM, Table 61): 96%
activity at 100 µM (recombinant human CD38; 100 μM, Table 61, read-out: Activity (%) Repeat 1): 4%
activity at 100 µM (recombinant human CD38; 100 μM, Table 61, read-out: Activity (%) Repeat 2): 3%
Net Signal (Fluorescence counts) Repeat 1 (recombinant human CD38; 100 μM, Table 62): 1979 Fluorescence counts
Net Signal (Fluorescence counts) Repeat 2 (recombinant human CD38; 100 μM, Table 62): 2165 Fluorescence counts
inhibition at 100 µM (recombinant human CD38; 100 μM, Table 62): 78%
activity at 100 µM (recombinant human CD38; 100 μM, Table 62, read-out: Activity (%) Repeat 1): 21%
activity at 100 µM (recombinant human CD38; 100 μM, Table 62, read-out: Activity (%) Repeat 2): 23%
Net Signal (Fluorescence counts) Repeat 1 (recombinant human CD38; 100 μM, Table 63): 5012 Fluorescence counts
Net Signal (Fluorescence counts) Repeat 2 (recombinant human CD38; 100 μM, Table 63): 5473 Fluorescence counts
inhibition at 100 µM (recombinant human CD38; 100 μM, Table 63): 61%
activity at 100 µM (recombinant human CD38; 100 μM, Table 63, read-out: Activity (%) Repeat 1): 37%
activity at 100 µM (recombinant human CD38; 100 μM, Table 63, read-out: Activity (%) Repeat 2): 40%
Net Signal (Fluorescence counts) Repeat 1 (recombinant human CD38; 100 μM, TABLE 64): 632 counts
Net Signal (Fluorescence counts) Repeat 2 (recombinant human CD38; 100 μM, TABLE 64): 728 counts
inhibition at 100 µM (recombinant human CD38; 100 μM, TABLE 64): 85%
activity at 100 µM (recombinant human CD38; 100 μM, TABLE 64, read-out: Activity (%) Repeat 1): 14%
activity at 100 µM (recombinant human CD38; 100 μM, TABLE 64, read-out: Activity (%) Repeat 2): 16%
Compound: O=c1cc(-c2ccc(O)cc2)oc2cc(O)cc(O)c12 [Apigenin]

Activity (%) Repeat 1 ([1]; 1 nM, Table 35): 98%
Activity (%) Repeat 2 ([1]; 1 nM, Table 35): 95%
Inhibition (%) ([1]; 1 nM, Table 35): 4%
Net Signal (Fluorescence counts) Repeat 1 ([1]; 1 nM, Table 35): 9894 Fluorescence counts
Net Signal (Fluorescence counts) Repeat 2 ([1]; 1 nM, Table 35): 9604 Fluorescence counts
Activity (%) Repeat 1 ([1]; 1 nM, Table 36): 99%
Activity (%) Repeat 2 ([1]; 1 nM, Table 36): 100%
Inhibition (%) ([1]; 1 nM, Table 36): 1%
Net Signal (Fluorescence counts) Repeat 1 ([1]; 1 nM, Table 36): 8864 Fluorescence counts
Net Signal (Fluorescence counts) Repeat 2 ([1]; 1 nM, Table 36): 8931 Fluorescence counts
Activity (%) Repeat 1 ([1]; 0.001 μM, Table 37): 88%
Activity (%) Repeat 2 ([1]; 0.001 μM, Table 37): 83%
Inhibition (%) ([1]; 0.001 μM, Table 37): 15%
Net Signal (Fluorescence counts) Repeat 1 ([1]; 0.001 μM, Table 37): 52418 Fluorescence counts
Net Signal (Fluorescence counts) Repeat 2 ([1]; 0.001 μM, Table 37): 49644 Fluorescence counts
Activity (%) Repeat 1 ([1]; 10 nM, Table 35): 51%
Activity (%) Repeat 2 ([1]; 10 nM, Table 35): 54%
Inhibition (%) ([1]; 10 nM, Table 35): 48%
Net Signal (Fluorescence counts) Repeat 1 ([1]; 10 nM, Table 35): 5170 Fluorescence counts
Net Signal (Fluorescence counts) Repeat 2 ([1]; 10 nM, Table 35): 5444 Fluorescence counts
Activity (%) Repeat 1 ([1]; 10 nM, Table 36): 64%
Activity (%) Repeat 2 ([1]; 10 nM, Table 36): 59%
Inhibition (%) ([1]; 10 nM, Table 36): 38%
Net Signal (Fluorescence counts) Repeat 1 ([1]; 10 nM, Table 36): 5727 Fluorescence counts
Net Signal (Fluorescence counts) Repeat 2 ([1]; 10 nM, Table 36): 5326 Fluorescence counts
Activity (%) Repeat 1 ([1]; 0.01 μM, Table 37): 36%
Activity (%) Repeat 2 ([1]; 0.01 μM, Table 37): 33%
Inhibition (%) ([1]; 0.01 μM, Table 37): 66%
Net Signal (Fluorescence counts) Repeat 1 ([1]; 0.01 μM, Table 37): 21262 Fluorescence counts
Net Signal (Fluorescence counts) Repeat 2 ([1]; 0.01 μM, Table 37): 19656 Fluorescence counts
Activity (%) Repeat 1 ([1]; 0.1 μM, Table 37): 5%
Activity (%) Repeat 2 ([1]; 0.1 μM, Table 37): 6%
Inhibition (%) ([1]; 0.1 μM, Table 37): 95%
Net Signal (Fluorescence counts) Repeat 1 ([1]; 0.1 μM, Table 37): 3091 Fluorescence counts
Net Signal (Fluorescence counts) Repeat 2 ([1]; 0.1 μM, Table 37): 3478 Fluorescence counts
Activity (%) Repeat 1 ([1]; 100 nM, Table 35): 9%
Activity (%) Repeat 2 ([1]; 100 nM, Table 35): 9%
Inhibition (%) ([1]; 100 nM, Table 35): 91%
Net Signal (Fluorescence counts) Repeat 1 ([1]; 100 nM, Table 35): 958 Fluorescence counts
Net Signal (Fluorescence counts) Repeat 2 ([1]; 100 nM, Table 35): 960 Fluorescence counts
Activity (%) Repeat 1 ([1]; 100 nM, Table 36): 11%
Activity (%) Repeat 2 ([1]; 100 nM, Table 36): 12%
Inhibition (%) ([1]; 100 nM, Table 36): 89%
Net Signal (Fluorescence counts) Repeat 1 ([1]; 100 nM, Table 36): 1009 Fluorescence counts
Net Signal (Fluorescence counts) Repeat 2 ([1]; 100 nM, Table 36): 1033 Fluorescence counts
Compound: CC(C)C[C@H](NC(=O)[C@H]1O[C@@H]1C(=O)O)C(=O)NCCCCN=C(N)N [E-64]
